These results are taken from patent publication US20080095869A1, “Anticancer Treatment” (priority 2004, published 2008).

Read-outs that look alike come from different tables or passages of the source.

One assay has as its target T1, tNOX from HeLa (Homo sapiens, UniProt Q16206).
T1 construct: The cells were thawed at room temperature, resuspended and incubated at 37° C. for 1 h to release the protein
T1 sequence (Q16206 1-610): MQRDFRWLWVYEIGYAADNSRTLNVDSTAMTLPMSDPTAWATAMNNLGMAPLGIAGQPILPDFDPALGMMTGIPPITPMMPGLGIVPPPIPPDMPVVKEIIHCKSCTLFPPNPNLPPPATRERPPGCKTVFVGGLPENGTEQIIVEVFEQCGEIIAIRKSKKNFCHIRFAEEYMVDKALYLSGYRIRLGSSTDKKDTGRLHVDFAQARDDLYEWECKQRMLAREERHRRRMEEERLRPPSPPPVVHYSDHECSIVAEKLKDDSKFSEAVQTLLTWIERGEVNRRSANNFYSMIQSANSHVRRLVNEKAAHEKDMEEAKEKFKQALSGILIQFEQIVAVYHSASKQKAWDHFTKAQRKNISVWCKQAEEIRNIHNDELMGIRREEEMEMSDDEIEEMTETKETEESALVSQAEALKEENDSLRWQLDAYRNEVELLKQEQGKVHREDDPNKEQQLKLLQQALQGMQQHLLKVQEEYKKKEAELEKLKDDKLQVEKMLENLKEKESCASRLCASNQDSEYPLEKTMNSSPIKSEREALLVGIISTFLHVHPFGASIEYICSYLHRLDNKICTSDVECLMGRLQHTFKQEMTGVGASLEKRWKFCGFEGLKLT
Nature of the assay: Spectrophotometric NADH oxidase assay, NOX activity from the HeLa cell surface. Particulars: for Response of NOX activity from the HeLa cell surface when combined with sulforaphane: sequential additions, preceding or following sulforaphane (FIGS. 7, 8). Type of assay: biochemical. As for the experimental part: HeLa S cells (grown in suspension) were collected by centrifugation and shipped frozen by a commercial supplier (Cellex Biosciences, Minneapolis, Minn.) In 0.1 m sodium acetate, pH 5, in a ratio of 1 mL packed cell volume to 1 mL acetate. The cells were thawed at room temperature, resuspended and incubated at 37° C. for 1 h to release the protein. The cells were removed by centrifugation at 37000 g for 60 min and the cell-free supernatants were refrozen and stored in 1 mL samples at −70° C.

Assay [1] has as its target tNOX of 4T1 mouse mammary cells (Mus musculus, UniProt Q8R0Z2). Nature of the assay: biochemical. As to the method: (§1) NADH oxidase activity was determined as the disappearance of NADH measured at 340 nm in a reaction mixture containing 25 mM Tris-Mes buffer (pH 7.2), 1 mM KCN to inhibit low levels of mitochondrial oxidase activity, and 150 ([…] NADH at 37° C. with temperature control (±0.5°) and stirring (14). Activity was measured using paired Hitachi U3210 spectrophotometers. Assays were initiated by addition of NADH. With plasma membranes and whole cells, assays were for 1 min and were repeated on the same sample every 1.5 min for the time indicated. A millimolar extinction coefficient of 6.22 was used to determine specific activity. Proteins were estimated by the bicinchoninic acid method with bovine serum albumin as standard.

Assay [2] deals with CNOX activity of soybean plasma membranes. As to conditions: plasma membranes from dark-grown soybean hypocotyls, lack tNOX (FIG. 5). As to the method: as §1
For assay [3], the target named is CNOX of non-cancer MCF-10A human mammary epithelia (Homo sapiens, UniProt Q8TC92). As to conditions: non-cancer cells which lack tNOX (FIG. 4). As for the experimental part: as §1
The test system of another assay is HeLa cells. Nature of the assay: Growth of HeLa cells in culture (96-well crystal violet). In kind it is cell-based. As to conditions: Homo sapiens, 48 and 72 h of treatment (FIG. 6), read-out: EC50 for inhibition of growth of HeLa cells. As to the method:
HeLa (ATCC CCL-2) human cervical adenocarcinoma cells were cultured in minimal essential medium (Eagle), with 2 mM L-glutamine and Earle's balanced salt solution adjusted to contain 1.5 g/L sodium bicarbonate, 0.2 mM non-essential amino adds, 1.0 mM sodium pyruvate and supplemented with 10% bovine calf serum (heat-inactivated) plus 50 mg/L gentamycin sulfate (Sigma).
HeLa (5×10^4) or CHO (10^4) cells were distributed into each plate well (Costar tissue culture plate).

Assay [4] relates to human mammary cancer (BT-20) cells. Nature of the assay: cells. Particulars: BT-20, read-out: EC50 for inhibition of growth of BT-20 cells. As for the experimental part: (§2) Growth was determined using a 96-well plate assay as described by Lin et al. (17). HeLa (5×10^4) or CHO (10^4) cells were distributed into each plate well (Costar tissue culture plate). The cells were grown at 37° C. for 24 h after which the substances to be evaluated were added followed by incubation for an additional 48 or 72 h as indicated. Medium was removed and the cells were washed with phosphate-buffered saline and then fixed by addition of […] 2.5% (v/v) glutaraldehyde for 0.5 h followed by a distilled water wash. The cells were stained with […] 1% aqueous crystal violet for 0.5 h, washed exhaustively with distilled water followed by […] 33% (v/v) acetic acid for 5 min. The absorbance was determined at 580 nm using an automated plate reader. Growth was determined according to the formula [(b−c)×100]/(a−c)] where a=absorbance of cells in medium without treatment b=cells in medium with treatment and c=medium alone (background).

A further assay deals with non-cancer MCF-10A cells. As to conditions: compared with cancer cells. As to the method: as §2

CNOX of non-cancer MCF-10A human mammary epithelia, sequence (Q8TC92 whole entry): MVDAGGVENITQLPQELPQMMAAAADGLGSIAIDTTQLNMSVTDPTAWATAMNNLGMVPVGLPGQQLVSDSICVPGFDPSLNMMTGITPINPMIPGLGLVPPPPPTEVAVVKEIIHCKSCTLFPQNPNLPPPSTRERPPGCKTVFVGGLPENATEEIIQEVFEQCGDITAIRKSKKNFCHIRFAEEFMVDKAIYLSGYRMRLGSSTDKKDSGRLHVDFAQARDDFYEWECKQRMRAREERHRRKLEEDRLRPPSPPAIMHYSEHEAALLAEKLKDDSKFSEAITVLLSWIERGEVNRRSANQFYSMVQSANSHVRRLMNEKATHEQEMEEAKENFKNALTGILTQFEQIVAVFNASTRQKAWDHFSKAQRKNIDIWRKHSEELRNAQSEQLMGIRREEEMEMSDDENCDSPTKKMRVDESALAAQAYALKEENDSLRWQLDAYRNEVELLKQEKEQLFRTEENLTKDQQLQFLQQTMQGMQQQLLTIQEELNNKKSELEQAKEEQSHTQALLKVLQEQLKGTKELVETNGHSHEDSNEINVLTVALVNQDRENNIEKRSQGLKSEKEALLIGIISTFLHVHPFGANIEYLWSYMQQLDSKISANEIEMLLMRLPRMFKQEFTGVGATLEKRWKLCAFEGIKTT
tNOX of 4T1 mouse mammary cells, sequence (Q8R0Z2 whole entry): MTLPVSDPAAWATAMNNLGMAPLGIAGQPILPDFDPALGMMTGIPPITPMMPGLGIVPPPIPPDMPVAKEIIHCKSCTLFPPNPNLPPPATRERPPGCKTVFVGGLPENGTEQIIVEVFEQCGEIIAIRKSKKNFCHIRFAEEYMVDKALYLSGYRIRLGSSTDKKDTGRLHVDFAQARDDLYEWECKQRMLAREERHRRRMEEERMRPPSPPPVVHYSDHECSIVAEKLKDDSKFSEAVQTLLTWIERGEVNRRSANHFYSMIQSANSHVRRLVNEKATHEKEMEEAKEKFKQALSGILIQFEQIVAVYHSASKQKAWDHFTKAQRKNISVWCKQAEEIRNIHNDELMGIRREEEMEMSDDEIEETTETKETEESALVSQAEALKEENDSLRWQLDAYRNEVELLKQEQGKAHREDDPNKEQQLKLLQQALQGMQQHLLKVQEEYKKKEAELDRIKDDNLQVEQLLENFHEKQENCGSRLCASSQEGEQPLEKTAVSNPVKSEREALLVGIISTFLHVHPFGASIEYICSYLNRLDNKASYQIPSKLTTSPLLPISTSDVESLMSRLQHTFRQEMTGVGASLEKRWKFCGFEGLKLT

Regarding `C[S@@+]([O-])CCCCN=C=S` [L-Sulforaphane], the EC50 was roughly 1000 µM on tNOX from HeLa (NOX activity from HeLa cell surface (FIGS. 1 and 2)); roughly 1000 µM in assay [1]; 100 to 1000 µM in the assay on HeLa cells; 100 to 1000 µM in assay [4]. For the same compound, the “Effect on CNOX activity of soybean plasma membranes” value is given as “unaffected” in assay [2] and “does not inhibit” in assay [2] (listed as Sulforaphane). Besides, the “Effect on CNOX (NOX activity) of MCF-10A human mammary epithelia” value in assay [3] is reported as “unaffected”; in assay [3] (listed as Sulforaphane), “does not inhibit”. Also, in the assay with non-cancer MCF-10A cells, the “Inhibition of growth of non-cancer MCF-10A cells” value is reported as “inhibited to nearly the same extent as the cancer cells”.
Turning to `COc1cc(CNC(=O)CCCC/C=C/C(C)C)ccc1O` [capsaicin, 8-methyl-N-vanillyl-6-noneamide], on tNOX from HeLa, the “Response of NOX activity from the HeLa cell surface when combined with sulforaphane” value is “beneficial response”.
On the same count and under the same terms, the result for `COc1cc(CN)ccc1O` [vanillylamine] reads “beneficial response”; that for (−)-epigallocatechin gallate [EGCg], “antagonistic”.

In general, EC50 refers to the concentration that produces a half-maximal response.
